Key:
DPP-IV = DPP-IV (UniProt P27487); assay: In-vitro DPP-IV assay (cleavage of pNA from Gly-Pro-pNA); assay type: biochemical, porcine kidney or human recombinant; conditions: for IC50: DPP-IV; for % Inhibition: DPP-IV inhibition at 100 nM
Experimental: Protocol for In-Vitro DPP-IV Assay
DPP-IV activity was determined by the rate of cleavage of p-nitro aniline (pNA) from synthetic substrate Glycine-Proline-pNA. The assay was conducted by adding 1 μg of porcine kidney or human recombinant DPP-IV enzyme (Sigma Aldrich, USA) in 100 μL of the assay buffer (100 mM Tris, pH 7.4, 140 mM NaCl, 10 mM KCl, 1% BSA) to 96 well Cellstar flat bottom microtitre plates (Greiner Bio-one, Germany). The reaction was initiated by adding 80 μl of 500 μM substrate Gly-Pro-pNA. The incubation was carried out in the kinetic mode at 30° C. for 30 min. Absorbance was measured using Synergy HT Biotek Multiplate reader at 410 nm. Test compounds and solvent controls were added as 10 μL additions. A standard curve of free p-nitro, aniline (pNA) was generated using 0-2000 μM pNA in the assay buffer. In addition DPP-IV activity was also determined by using Fluorogenic substrate (Gly-Pro-AMC) using human recombinant DPP-IV enzyme (Sigma Aldrich USA).
Test compounds dissolved in DMSO at 9-10 different concentrations were tested in triplicates along with the solvent control and blank samples. % age inhibition was calculated at each concentration with respect to the solvent control (no test compound added). IC50 values were calculated from 3 experiments using the Graph Pad Prism or Sigma Stat software.

C57BL/6J mice = assay: Oral glucose tolerance test (OGTT) in C57BL/6J mice; assay type: in vivo; conditions: for ED50 (mg/kg p.o.): OGTT in C57BL/6J mice; for % Reduction in glucose excursion: OGTT in C57BL/6J mice at 3 mg/kg body weight, glucose 2 g/kg p.o., glucose AUC
Experimental: Oral Glucose Tolerance Test (OGTT) in C57BL/6J Mice
The oral glucose tolerance test (OGTT) measures the body's ability to use glucose that is the body's main source of energy. OGTT serves as a primary in-vivo screen to select efficacious test compounds for their antidiabetic activity. Compounds were formulated in 0.25% CMC with a drop of tween 80 (optional). C57BL/6J male mice (8-9 weeks) were fasted overnight and randomized into different groups (n=6) on body weigh basis. At T−15 min blood was collected from each group for glucose estimation. At T0 compounds or vehicle were administered with simultaneous administration of glucose (2 g/kg p.o.) to each group. RO water was administered to no glucose control group. Blood samples were collected from retro-orbital plexus at 15, 30, 60 and 120 min post dosing for glucose estimation. The AUC for glucose was calculated to get the reduction in glucose excursion.

| SMILES | IC50 (DPP-IV) | % Inhibition (DPP-IV) | ED50 (mg/kg p.o.) (C57BL/6J mice) | % Reduction in glucose excursion (C57BL/6J mice) |
| --- | --- | --- | --- | --- |
| N[C@@H](CC(=O)N1CC(=O)Nc2ccccc2C1)Cc1cc(F)c(F)cc1F [Compound 2] | 1 to 100 nM | Y (Y: 50-100% DPP-IV inhibition at 100 nM) | 0.4 mg/kg p.o. | 51% |
| N[C@@H](CC(=O)N1CC(=O)Nc2cc(F)ccc2C1)Cc1cc(F)c(F)cc1F [Compound 3] | 1 to 100 nM | Y (Y: 50-100% DPP-IV inhibition at 100 nM) | 0.7 mg/kg p.o. | 37% |
| N[C@@H](CC(=O)N1CC(=O)N(CC(=O)NC2CC2)c2cc(F)ccc2C1)Cc1cc(F)c(F)cc1F [Compound 38] | 1 to 100 nM | Y (Y: 50-100% DPP-IV inhibition at 100 nM) | – | – |
| CN(C(=O)CN1C(=O)CN(C(=O)C[C@H](N)Cc2cc(F)c(F)cc2F)Cc2ccccc21)C1CC1 [Compound 39] | – | Y (Y: 50-100% DPP-IV inhibition at 100 nM) | – | – |
| N[C@@H](CC(=O)N1Cc2ccccc2-n2ccnc2C1)Cc1cc(F)c(F)cc1F [Compound 95] | 1 to 100 nM | Y (Y: 50-100% DPP-IV inhibition at 100 nM) | – | – |
